In patent US20230398130A1, “METHODS AND COMPOSITIONS FOR DIFFERENTIATING STEM CELLS” (Massachusetts Institute of Technology, priority 2020, published 2023):

Assays:
[1] = tested on: ISC-enriched organoids; experiment: Primary screen, 384-well 2.5-D organoid differentiation (ENR+CD, 6 days): basal lysozyme secretion (LYZ.NS); assay type: cell-based, murine; conditions: for Dose.FC.LYZ.NS: FC vs plate median; for SSMD.LYZ.NS: strictly standardized mean difference
Source text: (§1) High-throughput screening.

[2] = tested on: ISC-enriched organoids; experiment: Primary screen, 384-well 2.5-D organoid differentiation (ENR+CD, 6 days): carbachol-induced lysozyme secretion (LYZ.S); assay type: cell-based, murine; conditions: for Dose.FC.LYZ.S: FC vs plate median; for Z.LYZ.S: standard z score; for SSMD.LYZ.S: strictly standardized mean difference
Source text: as §1

[3] = tested on: ISC-enriched organoids; experiment: Primary screen, 384-well 2.5-D organoid differentiation (ENR+CD, 6 days, Target Selective Inhibitor Library, vs whole-plate median): ATP (CellTiter-Glo 3D, CTG); conditions: for Dose.FC.CTG: FC vs plate median; for SSMD.CTG: strictly standardized mean difference
[4] = dose 0.08 uM (1st of 4 lines per treatment; dose not printed in this part)
[5] = dose 0.40 uM (2nd of 4 lines per treatment; dose not printed in this part)
[6] = dose 2.00 uM (3rd of 4 lines per treatment; dose not printed in this part)
[7] = dose 10.00 uM (4th of 4 lines per treatment; dose not printed in this part)
[8] = primary screen, dose 0.08 uM, ENR+CD 6 days
[9] = primary screen, dose 0.08 uM, standard z score of FC
[10] = primary screen, dose 0.40 uM, ENR+CD 6 days
[11] = primary screen, dose 0.40 uM, standard z score of FC
[12] = primary screen, dose 2.00 uM, ENR+CD 6 days
[13] = primary screen, dose 2.00 uM, standard z score of FC
[14] = primary screen, dose 10.00 uM, ENR+CD 6 days
[15] = primary screen, dose 10.00 uM, standard z score of FC
[16] = Dose 0.08 uM, standard z score of FC
[17] = Dose 0.40 uM, standard z score of FC
[18] = Dose 2.00 uM, standard z score of FC
[19] = Dose 10.00 uM, standard z score of FC
[20] = Dose 0.08 uM, primary screen, standard z score
[21] = Dose 0.40 uM, primary screen, standard z score
[22] = Dose 2.00 uM, primary screen, standard z score
[23] = Dose 10.00 uM, primary screen, standard z score
[24] = primary screen, 1st of the 4 dose lines of the treatment (dose not given)
[25] = primary screen, 2nd of the 4 dose lines of the treatment (dose not given)
[26] = primary screen, 3rd of the 4 dose lines of the treatment (dose not given)
[27] = primary screen, 4th of the 4 dose lines of the treatment (dose not given)

## COc1cc2c(cc1O)CC[C@@H]1[C@@H]2CC[C@]2(C)[C@@H](O)CC[C@@H]12 [2-Methoxyestradiol (2-MeOE2)]
[1]; [4]
  SSMD.LYZ.NS_Rep (strictly standardized mean difference): 0.077
[1]; [5]
  SSMD.LYZ.NS_Rep (strictly standardized mean difference): 0.227
[1]; [6]
  SSMD.LYZ.NS_Rep (strictly standardized mean difference): 0.049
[1]; [7]
  SSMD.LYZ.NS_Rep (strictly standardized mean difference): −0.826
[1]; [8]
  Dose.FC.LYZ.NS: 0.021 log 2 fold change
[1]; [9]
  Z.LYZ.NS: 0.186
[1]; [10]
  Dose.FC.LYZ.NS: 0.065 log 2 fold change
[1]; [11]
  Z.LYZ.NS: 0.566
[1]; [12]
  Dose.FC.LYZ.NS: 0.005 log 2 fold change
[1]; [13]
  Z.LYZ.NS: 0.041
[1]; [14]
  Dose.FC.LYZ.NS: −0.139 log 2 fold change
[1]; [15]
  Z.LYZ.NS: −1.209
[2]; [4]
  SSMD.LYZ.S_Rep (strictly standardized mean difference): 1.015
  Z.LYZ.S (standard z score): 1.224
[2]; [5]
  SSMD.LYZ.S_Rep (strictly standardized mean difference): 0.831
  Z.LYZ.S (standard z score): 1.747
[2]; [6]
  SSMD.LYZ.S_Rep (strictly standardized mean difference): 0.144
  Z.LYZ.S (standard z score): 0.190
[2]; [7]
  SSMD.LYZ.S_Rep (strictly standardized mean difference): −1.135
  Z.LYZ.S (standard z score): −1.795
[2]; [8]
  Dose.FC.LYZ.S: 0.189 log 2 fold change
[2]; [10]
  Dose.FC.LYZ.S: 0.270 log 2 fold change
[2]; [12]
  Dose.FC.LYZ.S: 0.029 log 2 fold change
[2]; [14]
  Dose.FC.LYZ.S: −0.278 log 2 fold change
[3]; [4]
  SSMD.CTG_Rep (strictly standardized mean difference): 0.407
[3]; [5]
  SSMD.CTG_Rep (strictly standardized mean difference): 0.930
[3]; [6]
  SSMD.CTG_Rep (strictly standardized mean difference): 0.461
[3]; [7]
  SSMD.CTG_Rep (strictly standardized mean difference): −0.878
[3]; [8]
  Dose.FC.CTG: 0.299 log 2 fold change
[3]; [9]
  Z.CTG: 0.714
[3]; [10]
  Dose.FC.CTG: 0.401 log 2 fold change
[3]; [11]
  Z.CTG: 0.957
[3]; [12]
  Dose.FC.CTG: 0.227 log 2 fold change
[3]; [13]
  Z.CTG: 0.543
[3]; [14]
  Dose.FC.CTG: −0.672 log 2 fold change
[3]; [15]
  Z.CTG: −1.606

## CCC(CC)CC1(C(=O)Nc2ccccc2SC(=O)C(C)C)CCCCC1 [Dalcetrapib (JTT-705, RO4607381)]
[1]; Dose 0.08 uM, ENR+CD, 6 days
  Dose.FC.LYZ.NS: 0.055 log 2 fold change
[1]; [16]
  Z.LYZ.NS: 0.475
[1]; Dose 0.40 uM, ENR+CD, 6 days
  Dose.FC.LYZ.NS: −0.037 log 2 fold change
[1]; [17]
  Z.LYZ.NS: −0.324
[1]; Dose 2.00 uM, ENR+CD, 6 days
  Dose.FC.LYZ.NS: −0.034 log 2 fold change
[1]; [18]
  Z.LYZ.NS: −0.296
[1]; Dose 10.00 uM, ENR+CD, 6 days
  Dose.FC.LYZ.NS: −0.074 log 2 fold change
[1]; [19]
  Z.LYZ.NS: −0.643
[2]; Dose 0.08 uM, ENR+CD, 6 days
  Dose.FC.LYZ.S: 0.049 log 2 fold change
[2]; Dose 0.40 uM, ENR+CD, 6 days
  Dose.FC.LYZ.S: 0.104 log 2 fold change
[2]; Dose 2.00 uM, ENR+CD, 6 days
  Dose.FC.LYZ.S: 0.098 log 2 fold change
[2]; Dose 10.00 uM, ENR+CD, 6 days
  Dose.FC.LYZ.S: −0.113 log 2 fold change
[3]; Dose 0.08 uM, ENR+CD, 6 days
  Dose.FC.CTG: 0.112 log 2 fold change
[3]; [16]
  Z.CTG: 0.268
[3]; Dose 0.40 uM, ENR+CD, 6 days
  Dose.FC.CTG: −0.006 log 2 fold change
[3]; [17]
  Z.CTG: −0.014
[3]; Dose 2.00 uM, ENR+CD, 6 days
  Dose.FC.CTG: 0.079 log 2 fold change
[3]; [18]
  Z.CTG: 0.188
[3]; Dose 10.00 uM, ENR+CD, 6 days
  Dose.FC.CTG: 0.136 log 2 fold change
[3]; [19]
  Z.CTG: 0.324

## O=C1[C@H](Cc2ccc(O)cc2)N2C(=O)CCN(C(=O)NCc3ccccc3)[C@H]2CN1Cc1cccc2ccccc12 [ICG-001]
[1]; Dose 0.08 uM, primary screen
  Dose.FC.LYZ.NS: 0.037 log 2 fold change
[1]; [20]
  Z.LYZ.NS: 0.324
[1]; Dose 0.40 uM, primary screen
  Dose.FC.LYZ.NS: 0.037 log 2 fold change
[1]; [21]
  Z.LYZ.NS: 0.321
[1]; Dose 2.00 uM, primary screen
  Dose.FC.LYZ.NS: 0.045 log 2 fold change
[1]; [22]
  Z.LYZ.NS: 0.396
[1]; Dose 10.00 uM, primary screen
  Dose.FC.LYZ.NS: −0.125 log 2 fold change
[1]; [23]
  Z.LYZ.NS: −1.093
[1]; [24]
  SSMD.LYZ.NS: 0.280
[1]; [25]
  SSMD.LYZ.NS: 0.339
[1]; [26]
  SSMD.LYZ.NS: 0.413
[1]; [27]
  SSMD.LYZ.NS: −1.162
[2]; Dose 0.08 uM, primary screen
  Dose.FC.LYZ.S: 0.163 log 2 fold change
[2]; Dose 0.40 uM, primary screen
  Dose.FC.LYZ.S: 0.204 log 2 fold change
[2]; Dose 2.00 uM, primary screen
  Dose.FC.LYZ.S: 0.017 log 2 fold change
[2]; Dose 10.00 uM, primary screen
  Dose.FC.LYZ.S: −0.124 log 2 fold change
[2]; [24]
  Z.LYZ.S: 1.054
  SSMD.LYZ.S: 0.711
[2]; [25]
  Z.LYZ.S: 1.318
  SSMD.LYZ.S: 0.796
[2]; [26]
  Z.LYZ.S: 0.109
  SSMD.LYZ.S: 0.122
[2]; [27]
  Z.LYZ.S: −0.802
  SSMD.LYZ.S: −0.824
[3]; Dose 0.08 uM, primary screen
  Dose.FC.CTG: 0.104 log 2 fold change
[3]; [20]
  Z.CTG: 0.249
[3]; Dose 0.40 uM, primary screen
  Dose.FC.CTG: 0.104 log 2 fold change
[3]; [21]
  Z.CTG: 0.248
[3]; Dose 2.00 uM, primary screen
  Dose.FC.CTG: 0.143 log 2 fold change
[3]; [22]
  Z.CTG: 0.343
[3]; Dose 10.00 uM, primary screen
  Dose.FC.CTG: −0.416 log 2 fold change
[3]; [23]
  Z.CTG: −0.993
[3]; [24]
  SSMD.CTG: 0.298
[3]; [25]
  SSMD.CTG: 0.360
[3]; [26]
  SSMD.CTG: 0.530
[3]; [27]
  SSMD.CTG: −0.731

## C#Cc1cccc(Nc2ncnc3cc(OCCOC)c(OCCO)cc23)c1 [OSI-420]
[1]; Dose 0.08 uM, primary screen
  Dose.FC.LYZ.NS: 0.115 log 2 fold change
[1]; [16]
  Z.LYZ.NS: 1.002
[1]; Dose 0.40 uM, primary screen
  Dose.FC.LYZ.NS: −0.224 log 2 fold change
[1]; [17]
  Z.LYZ.NS: −1.948
[1]; Dose 2.00 uM, primary screen
  Dose.FC.LYZ.NS: −0.287 log 2 fold change
[1]; [18]
  Z.LYZ.NS: −2.498
[1]; Dose 10.00 uM, primary screen
  Dose.FC.LYZ.NS: −0.325 log 2 fold change
[1]; [19]
  Z.LYZ.NS: −2.833
[2]; Dose 0.08 uM, primary screen
  Dose.FC.LYZ.S: 0.059 log 2 fold change
[2]; Dose 0.40 uM, primary screen
  Dose.FC.LYZ.S: −0.221 log 2 fold change
[2]; Dose 2.00 uM, primary screen
  Dose.FC.LYZ.S: −0.381 log 2 fold change
[2]; Dose 10.00 uM, primary screen
  Dose.FC.LYZ.S: −0.374 log 2 fold change
[3]; Dose 0.08 uM, primary screen
  Dose.FC.CTG: 0.106 log 2 fold change
[3]; [16]
  Z.CTG: 0.254
[3]; Dose 0.40 uM, primary screen
  Dose.FC.CTG: −0.130 log 2 fold change
[3]; [17]
  Z.CTG: −0.311
[3]; Dose 2.00 uM, primary screen
  Dose.FC.CTG: −1.263 log 2 fold change
[3]; [18]
  Z.CTG: −3.016
[3]; Dose 10.00 uM, primary screen
  Dose.FC.CTG: −1.100 log 2 fold change
[3]; [19]
  Z.CTG: −2.627
